Results as given in patent publication US11884647B2, “Compounds and methods for targeting pathogenic blood vessels” (THE REGENTS OF THE UNIVERSITY OF CALIFORNIA, priority 2019, dated 2024).

The molecules below were run on tumor endothelial cells (LL/2 lung cancer tumor) (assay: Lung LL2 ex vivo model of tumor angiogenesis). Details: Lung LL2 ex vivo; Conc. 20 μm; 48 hrs.
Type: cell-based, mouse
Procedure: This example describes a procedure to prepare a primary tumor angiogenesis model for assessing the efficacy of anti-cancer candidate agents.
1. The day before the experiment, spray all necessary tools with 70% ethanol and sterilize them under UV light overnight, including blade, dissecting and micro-dissecting scissors and […]. Place 24-well dishes at 4° C. to pre-chill plates and thaw Matrigel 24 hours before tumor dissection.
2. Spray 70% ethanol on working bench. Prepare two sterile petri dishes with 10 mL sterile PBS. Steps 3 and 4 are for mouse tumor models. For fresh human tumor, directly go to step 5.
3. Euthanize the tumor-bearing mice. Spray 70% ethanol on the mouse and remove the tumor using sterilized dissecting tools (avoid the fur). Rinse the tumor in petri dish with sterile PBS to remove ethanol and fur. Transfer the tumor to a new petri dish with PBS for dissection. Place the dish on ice.
4. Using pre-chilled sterile pipet tips to seed regular Matrigel in 24 well plates on ice. Matrigel (30 μL) is dropped in the middle of each well without touching the edge of the well (avoid introducing bubbles if possible).
5. Cut the tumor in halves using the sterile blade. Identify and isolate healthy tumor tissue that is not necrotic and is within the tumor capsule. Cut the healthy tumor tissue into small pieces. For instance, a suitable size for the tumor tissue is 0.5 mm (H)×0.5 mm (L)×0.3 mm (D) with a total volume of 0.075 mm^3.
6. Gently transfer and embed each tumor piece in the Matrigel drop in the 24-well plate. Place the embedded piece in the bottom and middle of each Matrigel drop. Keep the plate on ice all the time.
7. After seeding the tumor pieces, plates are incubated in a 37° C. cell culture incubator without medium for 10 minutes in order for the Matrigel to solidify.
8. Endothelial Growth Medium (0.5 mL) is added to each well and incubated at 37° C. with 5% CO2. Wait until the new endothelial cells have grown out of the tumor or are larger than 3 mm in diameter until treatment. This usually takes 4 days for the LL2 Lewis lung cancer model and 7 days for the CT26 colon cancer model. For human tumor models, the growth time is typically 2-3 weeks, depending on the tumor type. Media is changed every 4 days during prolonged culture. Typically, when the tumor tissue grows to 2 mm in diameter, it is good for drug testing. A size of about 3 mm in diameter can make visualization easier.
9. When the assay is ready to be analyzed for cell death (e.g., 48 hours after drug addition), prepare the dye mixture by mixing 6 μL of green dye to stain live cells (5 mg/mL Fluorescein diacetate or FDA in DMSO) with 30 μL of red dye (2.5 mg/mL Propidium iodide or PI in PBS) to stain dead cells in an Eppendorf tube. The FDA dye needs to be stored frozen in a −20° C. freezer because it has a labile ester bond.
10. Add 1 μL of the dye mixture to each well of the 24-well dish. It is usually performed one 24-well dish at a time given the amount of time needed to take pictures (the green dye is not as stable in the cells in the long term).
11. Gently rock the dish a few times to mix the dye with the media in the wells and incubate the dish at 37° C. for 10 min (too long incubation can make the green signal too intense).
12. Wash each well with 0.5 mL of sterile PBS and then add 0.5 mL of phenol red free SFM to each well. Alternatively 0.5 mL of regular Endothelial Cell Growth Media can be added to each well if this well needs to be continuously maintained after the experiment.
13. Look through all wells on an inverted microscope using the 2× objective lens to observe morphological changes.
14. Taking pictures in the red and green channels would allow not only the recording of the result but also more accurate quantitation of the result. To take pictures for all the wells, first pick a well that has robust red and green signals. […]

Row | Structure (SMILES) | 48 hrs (morphology observations after 48 hours)
1 | CCCCCCCCCCCCCCOc1ccc(S(=O)(=O)c2cnc3ccc([S](C)[O])cc3c2N2CCC(N3CCC(N4CCCC(O)C4)CC3)CC2)cc1 (stereo not shown) [compound 348, 1″-(6-(methyl(λ^1-oxidanyl)-λ^3-sulfanyl)-3-((4-(tetradecyloxy)phenyl)sulfonyl)quinolin-4-yl)-[1,4′:1′,4″-terpiperidin]-3-ol] | * (50% or less of cells vesicularize in cell shape)

Same assay, conditions: Lung LL2 ex vivo; Conc. 20 μm; drug treatment two days

Row | Structure (SMILES) | Cell death [%]
2 | COc1ccc(S(=O)(=O)c2cnc3ccc(CC#N)cc3c2N2CCC(N3CCCCC3)CC2)cc1 [compound 115, 2-(4-([1,4′-bipiperidin]-1′-yl)-3-((4-methoxyphenyl)sulfonyl)quinolin-6-yl)acetonitrile] | 10
3 | CCCCCCCCCCCCCCOc1ccc(S(=O)(=O)c2cnc3ccc([S](C)[O])cc3c2N2CCC(N3CCC(N4CCCC(O)C4)CC3)CC2)cc1 (stereo not shown) [compound 348, 1″-(6-(methyl(λ^1-oxidanyl)-λ^3-sulfanyl)-3-((4-(tetradecyloxy)phenyl)sulfonyl)quinolin-4-yl)-[1,4′:1′,4″-terpiperidin]-3-ol] | 20
4 | O=S(=O)(c1ccc(OC(F)(F)F)cc1)c1cnc2ccc(OC(F)(F)F)cc2c1N1CCC(N2CCCCC2)CC1 [compound 120, 4-([1,4′-bipiperidin]-1′-yl)-6-(trifluoromethoxy)-3-((4-(trifluoromethoxy)phenyl)sulfonyl)quinoline] | 5
5 | CCCCCCCOc1ccc(S(=O)(=O)c2cnc3ccc(SC)cc3c2N2CCN(C3CCN(C)CC3)CC2)cc1 [compound 273, 3-((4-(heptyloxy)phenyl)sulfonyl)-4-(4-(1-methylpiperidin-4-yl)piperazin-1-yl)-6-(methylthio)quinoline] | 60

Same assay, conditions: Lung LL2 ex vivo; Conc. 40 μm; (rim)

Row | Structure (SMILES) | Cell death (rim) [%]
6 | CCCCCCCOc1ccc(S(=O)(=O)c2cnc3ccc(SC)cc3c2N2CCC(N3CCC(O)CC3)CC2)cc1 [compound 223, 1′-(3-((4-(heptyloxy)phenyl)sulfonyl)-6-(methylthio)quinolin-4-yl)-[1,4′-bipiperidin]-4-ol] | 30

Same assay, conditions: Lung LL2 ex vivo; Conc. 40 μm; drug treatment two days

Row | Structure (SMILES) | Cell death [%]
7 | CCCCOc1ccc(S(=O)(=O)c2cnc3ccc(SC)cc3c2N2CCCN(CCO)CC2)cc1 [compound 351, 2-(4-(3-((4-butoxyphenyl)sulfonyl)-6-(methylthio)quinolin-4-yl)-1,4-diazepan-1-yl)ethan-1-ol] | 100
8 | COc1ccc(S(=O)(=O)c2cnc3cc(OC)c(OC)cc3c2N2CCCN(c3nc4ccc(Cl)cc4s3)CC2)cc1 [compound 327, 6-chloro-2-(4-(6,7-dimethoxy-3-((4-methoxyphenyl)sulfonyl)quinolin-4-yl)-1,4-diazepan-1-yl)benzo[d]thiazole] | 20

Same assay, conditions: Mus musculus, Endothelial cell, 48 h, read-out: Cell death

Row | Structure (SMILES) | cytotoxicity at 20 µM [%] | cytotoxicity at 40 µM [%] | cytotoxicity at 10 µM [%]
9 | CCc1ccc(S(=O)(=O)c2cnc3ccc(OC(F)(F)F)cc3c2NCCCCO)cc1 [compound 111, 4-((3-((4-ethylphenyl)sulfonyl)-6-(trifluoromethoxy)quinolin-4-yl)amino)butan-1-ol] | 30 | – | –
10 | CCCCOc1ccc(S(=O)(=O)c2cnc3ccc(OC(F)(F)F)cc3c2N2CCS(=O)(=O)CC2)cc1 [compound 198, 4-(3-((4-butoxyphenyl)sulfonyl)-6-(trifluoromethoxy)quinolin-4-yl)thiomorpholine 1,1-dioxide] | – | 30 | –
11 | CCCCCCCCCCCCOc1ccc(S(=O)(=O)c2cnc3ccc([S+](C)[O-])cc3c2N2CCC(N3CCN(CCO)CC3)CC2)cc1F (stereo not shown) [compound 362, 2-(4-(1-(3-((4-(dodecyloxy)-3-fluorophenyl)sulfonyl)-6-(methylsulfinyl)quinolin-4-yl)piperidin-4-yl)piperazin-1-yl)ethanol] | 20 | – | –
12 | CCCCCCCCCCCCOc1ccc(S(=O)(=O)c2cnc3ccc([S+](C)[O-])cc3c2N2CCC(N3CCC(N4CCN(CCO)CC4)CC3)CC2)cc1 (stereo not shown) [compound 340, 2-(4-(1′-(3-((4-(dodecyloxy)phenyl)sulfonyl)-6-(methylsulfinyl)quinolin-4-yl)-[1,4′-bipiperidin]-4-yl)piperazin-1-yl)ethan-1-ol] | 60 | – | –
13 | CCOC(=O)c1ccc2ncc(S(=O)(=O)c3ccc(OC)cc3)c(N3CCC(N4CCN(C)CC4)CC3)c2c1 [compound 171, ethyl 3-((4-methoxyphenyl)sulfonyl)-4-(4-(4-methylpiperazin-1-yl)piperidin-1-yl)quinoline-6-carboxylate] | – | 40 | –
14 | COc1ccc(S(=O)(=O)c2cnc3cc(OC)c(OC)cc3c2N2CCC(N3CCCCC3)CC2)cc1 [compound 320, 4-([1,4′-bipiperidin]-1′-yl)-6,7-dimethoxy-3-((4-methoxyphenyl)sulfonyl)quinoline] | – | 30 | –
15 | COc1ccc(S(=O)(=O)c2cnc3cc(OC)c(OC)cc3c2N2CCCN(C3CCSCC3)CC2)cc1 [compound 329, 6,7-dimethoxy-3-((4-methoxyphenyl)sulfonyl)-4-(4-(tetrahydro-2H-thiopyran-4-yl)-1,4-diazepan-1-yl)quinoline] | – | 40 | –
16 | CCCCCCCCCCCCOc1ccc(S(=O)(=O)c2cnc3ccc([S+](C)[O-])cc3c2N2CCC(N3CCC(N4CCN(C)CC4)CC3)CC2)cc1F (stereo not shown) [compound 370, 3-((4-(dodecyloxy)-3-fluorophenyl)sulfonyl)-4-(4-(4-methylpiperazin-1-yl)-[1,4′-bipiperidin]-1′-yl)-6-(methylsulfinyl)quinoline] | 20 | – | –
17 | CCc1ccc(S(=O)(=O)c2cnc3ccc(OC(F)(F)F)cc3c2NCc2ccncc2)cc1 [compound 106, 3-((4-ethylphenyl)sulfonyl)-N-(pyridin-4-ylmethyl)-6-(trifluoromethoxy)quinolin-4-amine] | 5 | – | –
18 | CCc1ccc(S(=O)(=O)c2cnc3ccc(OC(F)(F)F)cc3c2N2CCC(N(CC)CC)CC2)cc1 [compound 103, N,N-diethyl-1-(3-((4-ethylphenyl)sulfonyl)-6-(trifluoromethoxy)quinolin-4-yl)piperidin-4-amine] | 10 | – | –
19 | CCOC(=O)c1ccc2ncc(S(=O)(=O)c3ccc(OC)cc3)c(-n3cncn3)c2c1 [compound 183, ethyl 3-((4-methoxyphenyl)sulfonyl)-4-(1H-1,2,4-triazol-1-yl)quinoline-6-carboxylate] | – | – | 100
20 | CCCCOc1ccc(S(=O)(=O)c2cnc3ccc(SC)cc3c2N2CCC(N3CCC(O)(c4ccccc4)CC3)CC2)cc1 [compound 232, 1′-(3-((4-butoxyphenyl)sulfonyl)-6-(methylthio)quinolin-4-yl)-4-phenyl-[1,4′-bipiperidin]-4-ol] | – | 10 | –
21 | CCCCCCCCCCCCCCOc1ccc(S(=O)(=O)c2cnc3ccc([S+](C)[O-])cc3c2N2CCC(N3CCC(N4CCCC(O)C4)CC3)CC2)cc1F (stereo not shown) [compound 367, 1″-(3-((3-fluoro-4-(tetradecyloxy)phenyl)sulfonyl)-6-(methylsulfinyl)quinolin-4-yl)-[1,4′:1′,4″- terpiperidin]-3-ol] | 5 | – | –
22 | CCCCOc1ccc(S(=O)(=O)c2cnc3ccc(C(=O)N(CC)CC)cc3c2N2CCCN(C)CC2)cc1 [compound 199, 3-((4-butoxyphenyl)sulfonyl)-N,N-diethyl-4-(4-methyl-1,4-diazepan-1-yl)quinoline-6-carboxamide] | – | 30 | –
23 | CCCCCCCOc1ccc(S(=O)(=O)c2cnc3ccc(SC)cc3c2N2CCC(N3CCCN(C)CC3)CC2)cc1 [compound 249, 3-((4-(heptyloxy)phenyl)sulfonyl)-4-(4-(4-methyl-1,4-diazepan-1-yl)piperidin-1-yl)-6-(methylthio)quinoline] | 60 | – | –
24 | COc1ccc(S(=O)(=O)c2cnc3ccc([S+](C)[O-])cc3c2NN2CCN(C)CC2)cc1 (stereo not shown) [compound 227, 3-((4-methoxyphenyl)sulfonyl)-N-(4-methylpiperazin-1-yl)-6-(methylsulfinyl)quinolin-4-amine] | – | 10 | –
25 | COc1ccc(S(=O)(=O)c2cnc3cc(OC)c(OC)cc3c2N2CCC3C(COCCN3CC(C)C)C2)cc1 (stereo not shown) [compound 324, 7-(6,7-dimethoxy-3-((4-methoxyphenyl)sulfonyl)quinolin-4-yl)-1-isobutyldecahydropyrido[4,3-e][1,4]oxazepine] | – | 60 | –
